The source of these data is paper PMC1925065, “Functional characterization of two melanocortin (MC) receptors in lamprey showing orthology to the MC1 and MC4 receptor subtypes” (BMC Evolutionary Biology, 2007).

In experiment [1] the target is human MC1. Particulars: saturation, [125I] NDP-MSH; mean ± SEM; ref [38]; cited from earlier work.
Experiment [2] has as its target human MC4. Particulars: saturation, [125I] NDP-MSH; mean ± SEM; ref [42]; cited from earlier work.
For experiment [3], the target named is human MC5. Particulars: saturation, [125I] NDP-MSH; mean ± SEM; ref [39]; cited from earlier work.
The target of experiment [4] is human MC3. The note with it: saturation, [125I] NDP-MSH; mean ± SEM; ref [42]; cited from earlier work.
Experiment [5] has as its system Non-transfected cells (HEK-293 EBNA). As to the kind of experiment: Radioligand binding, non-transfected cells. More on the design: species or system human. Particulars: [125I] NDP-MSH. As for the experimental part: HEK-293 EBNA cells expressing MC receptors were harvested from plate and resuspended in binding buffer composed of 25 mM HEPES, 2.5 mM CaCl2, 1 mM MgCl2 and 0.2% bacitracin, pH adjusted to 7.4. To obtain the membranes, cells were mechanically homogenized with Ultra Turrax. Cell suspensions were centrifuged for 3 min at 190 g and membranes were collected from the supernatant by centrifugation for 15 min at 20000 g. The pellet was resuspended in binding buffer. The binding was performed in a final volume of 100 μl for 2 h at room temperature. Saturation experiments were carried out with serial dilutions of [^125I] NDP-MSH { [Nle^4, D-Phe^7]α-MSH}, labelled by the Chloramine-T method. Non-specific binding was determined in the presence of 1 μM unlabeled NDP-MSH. Competition experiments were performed with constant 0.6 nM concentration of [^125I] NDP-MSH and serial dilutions of competing unlabelled human ligands: NDP-MSH, α-MSH, β-MSH, γ1-MSH, ACTH (1–17) ACTH (1–24) ACTH (1–39), MTII, HS024) (Neosystem, France) and lamprey ligands: MSH-A, MSH-B, ACTH(1–31). […] MeltiLex A scintillator sheets (Perkin Elmer, USA) were melted on dried filters and radioactivity was counted with an automatic Microbeta counter 1450 (Perkin Elmer). […] The results were analysed with Prism 3.0 software package (GraphPad, USA). […]

Experiment [6] concerns the target T1, lamprey MCa receptor (Lampetra fluviatilis, UniProt A6XB56).
T1 sequence (A6XB56 1-341): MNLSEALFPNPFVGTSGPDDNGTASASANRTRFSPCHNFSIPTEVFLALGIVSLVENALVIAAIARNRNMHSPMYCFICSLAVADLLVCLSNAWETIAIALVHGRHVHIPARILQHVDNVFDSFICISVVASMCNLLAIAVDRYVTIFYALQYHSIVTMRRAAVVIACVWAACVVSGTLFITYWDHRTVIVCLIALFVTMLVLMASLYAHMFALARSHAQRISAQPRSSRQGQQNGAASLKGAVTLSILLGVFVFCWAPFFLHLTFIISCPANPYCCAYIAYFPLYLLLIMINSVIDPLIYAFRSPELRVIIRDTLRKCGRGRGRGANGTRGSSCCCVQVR
Put plainly: Radioligand binding assay (saturation and competition, [125I] NDP-MSH), lamprey MCa. More on the design: species or system river lamprey. Particulars: read-out: Kd (mean ± SEM) from saturation curves, lamprey MCa; HEK-293 EBNA membranes, pH 7.4, 2 h, room temperature; non-specific binding with unlabelled NDP-MSH; mean ± SEM, duplicate, at least three independent experiments. As for the experimental part: HEK-293 (human embryonic kidney) cells with Epstein-Barr nuclear antigen (EBNA) grown to 50–70% confluence were transfected with 10 μg of the construct using FuGENE-6 Transfection Reagent (Roche, Sweden) according to the manufacturers' instruction. The cells were grown in Dulbeccos Modified Eagle Media and F-12 Nutrient Mixture (D-MEM/F-12) (1:1) with GlutaMAX I containing 10% foetal bovine serum, 100 u/ml penicillin, 100 μg/ml streptomycin, 2.5 ug/ml amphotericin B, and 250 μg/ml geneticin G-418 (Invitrogen); in humidified atmosphere of 95% air and 5% CO2 at 37°C. Semi-stable cell lines, expressing target receptor, were obtained by selecting for growth in the presence of 100 μg/ml hygromycin B (Invitrogen), first added 24 hours after transfection.
HEK-293 EBNA cells expressing MC receptors were harvested from plate and resuspended in binding buffer composed of 25 mM HEPES, 2.5 mM CaCl2, 1 mM MgCl2 and 0.2% bacitracin, pH adjusted to 7.4. To obtain the membranes, cells were mechanically homogenized with Ultra Turrax. Cell suspensions were centrifuged for 3 min at 190 g and membranes were collected from the supernatant by centrifugation for 15 min at 20000 g. The pellet was resuspended in binding buffer. The binding was performed in a final volume of 100 μl for 2 h at room temperature. Saturation experiments were carried out with serial dilutions of [^125I] […] Competition experiments were performed with constant 0.6 nM concentration of [^125I] […] The membranes were collected by filtration on Glass Fibre filters, Filtermat A (Perkin Elmer, USA), using a TOMTEC Mach III cell harvester (Orange, CT, USA). The filters were washed with 5 ml per well of 50 mM Tris HCl (pH 7.4) and dried at 50°C. MeltiLex A scintillator sheets (Perkin Elmer, USA) were melted on dried filters and radioactivity was counted with an automatic Microbeta counter 1450 (Perkin Elmer). Binding assays were performed in duplicate with at least three independent experiments. […] The results were analysed with Prism 3.0 software package (GraphPad, USA). Binding affinities were compared with one-way ANOVA Tukey's post-hoc tests.

In the case of `CCCC[C@H](NC(=O)[C@H](CO)NC(=O)[C@H](Cc1ccc(O)c(I)c1)NC(=O)[C@H](CO)NC(C)=O)C(=O)N[C@@H](CCC(=O)O)C(=O)N[C@@H](Cc1c[nH]cn1)C(=O)N[C@H](Cc1ccccc1)C(=O)N[C@@H](CCCNC(=N)N)C(=O)N[C@@H](Cc1c[nH]c2ccccc12)C(=O)NCC(=O)N[C@@H](CCCCN)C(=O)N1CCC[C@H]1C(=O)N[C@H](C(N)=O)C(C)C` [[^125I] NDP-MSH, [Nle^4, D-Phe^7]α-MSH], the Kd was 0.109 ± 0.062 nM in experiment [1]; 1.78 ± 0.36 nM in experiment [2]; 5.05 ± 1 nM in experiment [3]; 0.412 ± 0.121 nM in experiment [4]; 2.46 ± 0.68 nM in experiment [6]. In addition, the “specific binding, non-transfected cells” value in experiment [5] is “did not show any specific binding”.
